From patent publication US11168086B2, “Methods of synthesizing pyrazine compounds” (Hoffmann-La Roche Inc., priority 2015, dated 2021)

Test system: HBV
Test: HBV inhibition assay: anti-HBV activity in vitro in HepG2.2.15 cells (extracellular HBV DNA by qPCR)
Assay type: cell-based
Conditions: five days after compound treatment, extracellular HBV DNA in culture supernatant by qPCR, concentration at which HBV replication is inhibited by 50%
Excerpt: Example 441: HBV Inhibition Assays
Cell Line and Culture Conditions:
HepG2.2.15 is a stably-transfected cell line containing the HBV genome. It is derived from the hepatoblastoma cell line Hep G2 (American Type Culture Collection, ATCC® HB-8065™) by the published procedures described in reference: MA Selles et al. Proc. Natl. Acad. Sci. USA 1987, 84, 1005-1009. The cell line was maintained in Dulbecco's modified Eagle's medium (DMEM)-F12 medium supplemented with 10% fetal bovine serum, 100 U/mL penicillin, 100 μg/mL streptomycin, and 0.5 mg/mL of G418.
Anti-HBV Activity In Vitro:
HepG2.2.15 cells were seeded into 96-well plates (3×10^4 cells in 100 μL media per well) and incubated overnight at 37° C. The test compounds were serially half-log diluted in DMSO, then diluted 100 times in culture media. 100 μL diluted compounds were added into the plates to reach 0.5% final concentration of DMSO in every well. Five days after compound treatment, culture supernatant was collected for further analysis.
For quantitative PCR detection of extracellular HBV DNA, culture supernatant was processed by Proteinase K digestion. After heat inactivation of the enzyme, the samples were subjected to HBV DNA quantification by qPCR. The effective compound concentration at which
HBV replication is inhibited by 50% (EC50) was determined.

| SMILES | EC50 (Hepatitis B virus, 120 h) | EC50 |
| --- | --- | --- |
| Cc1noc(C2CN(c3cnn4c3CN(C(=O)Nc3cc(F)c(F)c(F)c3)[C@@H](C)C4)C(=O)O2)n1 (stereo partly drawn) [Example 408, (6S)-6-methyl-3-[5-(3-methyl-1,2,4-oxadiazol-5-yl)-2-oxo-oxazolidin-3-yl]-N-(3,4,5-trifluorophenyl)-6,7-dihydro-4H-pyrazolo[1,5-a]pyrazine-5-carboxamide] | 0.022 µM |  |
| C[C@H]1Cn2ncc(-c3ccc(F)cc3)c2CN1C(=O)Nc1ccc(F)c(Cl)c1 [Example 102, (6S)—N-(3-chloro-4-fluoro-phenyl)-3-(4-fluorophenyl)-6-methyl-6,7-dihydro-4H-pyrazolo[1,5-a]pyrazine-5-carboxamide] | 0.014 µM |  |
| CC1C(C#N)CC(=O)N1c1cnn2c1CN(C(=O)Nc1cc(F)c(F)c(F)c1)[C@@H](C)C2 (single isomer, unassigned) [Example 420-1] |  | 0.027 µM |
| C[C@H]1Cn2ncc(N3CC(c4ccccc4)C(O)C3=O)c2CN1C(=O)Nc1cc(F)c(F)c(F)c1 (single isomer, unassigned) [Example 438-1] |  | 0.01 µM |
| CC1C(C#N)CC(=O)N1c1cnn2c1CN(C(=O)Nc1cc(F)c(F)c(F)c1)[C@@H](C)C2 (single isomer, unassigned) [Example 420-2] |  | 0.03 µM |
| Cc1nnc(C2(C)CC(=O)N(c3cnn4c3CN(C(=O)Nc3cc(F)c(F)c(F)c3)[C@@H](C)C4)C2)o1 (stereo partly drawn) [Example 403, (6S)-6-methyl-3-[4-methyl-4-(5-methyl-1,3,4-oxadiazol-2-yl)-2-oxo-pyrrolidin-1-yl]-N-(3,4,5-trifluorophenyl)-6,7-dihydro-4H-pyrazolo[1,5-a]pyrazine-5-carboxamide] | 0.031 µM |  |
| N#Cc1cc(NC(=O)N2CCn3ncc(C4CCCC4)c3C2)ccc1F [Example 79, N-(3-cyano-4-fluoro-phenyl)-3-cyclopentyl-6,7-dihydro-4H-pyrazolo[1,5-a]pyrazine-5-carboxamide] | 0.028 µM |  |
| C[C@H]1Cn2ncc(N3CC(Nc4ncccn4)CC3=O)c2CN1C(=O)Nc1cc(F)c(F)c(F)c1 (stereo partly drawn) [Example 269, (6S)-6-methyl-3-[2-oxo-4-(pyrimidin-2-ylamino)pyrrolidin-1-yl]-N-(3,4,5-trifluorophenyl)-6,7-dihydro-4H-pyrazolo[1,5-a]pyrazine-5-carboxamide] | 0.012 µM |  |
| C[C@H]1Cn2ncc(N3CN(c4ncccn4)CC3=O)c2CN1C(=O)Nc1cc(F)c(F)c(F)c1 [Example 281, (6S)-6-methyl-3-(5-oxo-3-pyrimidin-2-yl-imidazolidin-1-yl)-N-(3,4,5-trifluorophenyl)-6,7-dihydro-4H-pyrazolo[1,5-a]pyrazine-5-carboxamide] | 0.052 µM |  |
| CC1Cn2ncc(-c3ccc(F)cn3)c2CN1C(=O)Nc1cc(F)c(F)c(Cl)c1 (stereo not shown) [Example 158, N-(3-chloro-4,5-difluoro-phenyl)-3-(5-fluoro-2-pyridyl)-6-methyl-6,7-dihydro-4H-pyrazolo[1,5-a]pyrazine-5-carboxamide] | 0.044 µM |  |
| CC1Cn2ncc(-c3ccc(F)cc3F)c2CN1C(=O)Nc1cc(F)c(F)c(F)c1 (stereo not shown) [Example 178, 3-(2,4-difluorophenyl)-6-methyl-N-(3,4,5-trifluorophenyl)-6,7-dihydro-4H-pyrazolo[1,5-a]pyrazine-5-carboxamide] | 0.013 µM |  |
| C[C@H]1Cn2ncc(N3CC(C(=O)Nc4ncco4)CC3=O)c2CN1C(=O)Nc1cc(F)c(F)c(F)c1 (stereo partly drawn) [Example 392, (6S)-6-methyl-3-[4-(oxazol-2-ylcarbamoyl)-2-oxo-pyrrolidin-1-yl]-N-(3,4,5-trifluorophenyl)-6,7-dihydro-4H-pyrazolo[1,5-a]pyrazine-5-carboxamide] | 0.088 µM |  |
| C[C@H]1Cn2ncc(N3CCCC3=O)c2CN1C(=O)Nc1cc(F)c(F)c(Cl)c1 [Example 231, (6S)—N-(3-chloro-4,5-difluoro-phenyl)-6-methyl-3-(2-oxopyrrolidin-1-yl)-6,7-dihydro-4H-pyrazolo[1,5-a]pyrazine-5-carboxamide] | 0.025 µM |  |
